This is an account of results in paper PMC8480782, “Efficient Dimerization Disruption of Leishmania infantum Trypanothione Reductase by Triazole-phenyl-thiazoles” (Journal of Medicinal Chemistry, 2021).

Usually viability stands for a read-out of living cells in per cent, often relative to untreated cells.

The target in the first series is T1, human glutathione-disulfide reductase (hGR) (Homo sapiens, UniProt P00390).
T1 construct: HIS (vector pRSETA); made in house
T1 sequence (P00390 44-522): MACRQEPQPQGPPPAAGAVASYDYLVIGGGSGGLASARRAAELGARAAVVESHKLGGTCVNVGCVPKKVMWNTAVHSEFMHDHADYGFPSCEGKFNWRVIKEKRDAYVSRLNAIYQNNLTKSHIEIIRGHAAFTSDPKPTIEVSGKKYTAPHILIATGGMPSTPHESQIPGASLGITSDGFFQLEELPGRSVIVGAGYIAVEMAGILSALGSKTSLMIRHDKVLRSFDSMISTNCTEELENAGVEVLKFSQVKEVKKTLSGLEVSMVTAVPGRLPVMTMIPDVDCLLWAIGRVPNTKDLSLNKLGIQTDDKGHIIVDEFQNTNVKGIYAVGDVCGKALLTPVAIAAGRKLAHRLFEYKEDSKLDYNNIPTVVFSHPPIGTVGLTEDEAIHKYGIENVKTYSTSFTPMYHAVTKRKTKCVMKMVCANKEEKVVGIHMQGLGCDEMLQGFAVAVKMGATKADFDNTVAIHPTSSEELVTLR
Description: hGR oxidoreductase activity, DTNB-coupled assay. Type of series: biochemical.
Conditions: not given
The text has this:
The DNA coding sequences for Homo sapiens GR, T. brucei TryR, and T. congolense TryR were polymerase chain reaction (PCR)-amplified and cloned in the pRSETA plasmid. The DNA coding for hGR (transcript variant 1; NCBI Reference Sequence: NM_000637.5) was purchased from GeneScript. Genomic DNA from T. congolense parasites was kindly provided by Dr. Stefan Magez (University of Vrije, Brussels). Genomic DNA from the T. brucei S16 cell line was kindly provided by José M. Pérez-Victoria. Instituto de Parasitología y Biomedicina “López—Neyra” CSIC. HIS-tagged recombinant T. brucei and T. congolense TryRs (TbTryR and TcoTryR, respectively) were purified from E. coli as already explained for LiTryR.
hGR oxidoreductase activity was determined spectrophotometrically using a DTNB-coupled assay. Briefly, reactions were carried out at 37 °C in 250 μL of HEPES buffer (pH 7.5, 40 mM) containing EDTA (1 mM), NADP^+, (60 μM), DTNB (150 μM), oxidized glutathione (50 μM), NADPH (300 μM), glycerol (0.02%), DMSO (1.75%), and recombinant hGR (7 nM). […] TNB concentration was obtained by multiplying the absorbance values by 100 (50 μM TNB generates 0.5 arbitrary units of absorbance at 412 nm). All of the assays were conducted in at least three independent experiments. Data were analyzed using a nonlinear regression model with GraFit 6 software (Erithacus, Horley, Surrey, U.K.).
In the case of `NCCCCc1cn(-c2ccc(-c3nc(-c4ccccc4)c(-c4ccccc4)s3)c(OCCN3CCNC3=O)c2)nn1.O=C(O)C(F)(F)F` [19a, 1-(2-(5-(4-(4-Ammoniobutyl)-1H-1,2,3-triazol-1-yl)-2-(4,5-diphenylthiazol-2-yl)phenoxy)ethyl)imidazolidin-2-one 2,2,2-Trifluoroacetate], the “inhibitory activity against hGR” value is reported as “none of these compounds showed any inhibitory activity”.

In the case of `NCCCCc1cn(-c2ccc(-c3nc(CCc4ccc5c(c4)CCO5)cs3)c(OCCN3CCNC3=O)c2)nn1.O=C(O)C(F)(F)F` [12r], the “inhibitory activity against hGR” value is “none of these compounds showed any inhibitory activity”.

With `NCCCCc1cn(-c2ccc(-c3nc(-c4ccccc4)cs3)c(OCCN3CCNC3=O)c2)nn1.O=C(O)C(F)(F)F` [12n], the “inhibitory activity against hGR” value was “none of these compounds showed any inhibitory activity”.

Tested on in the next series: not listed separately
In words: Cytotoxicity in THP-1 monocyte-derived macrophages (LDH activity). Type of series: cell-based, human. As to conditions: human; 75 μM (maximum concentration assayed); read-out: Cell viability of amastigote-infected THP-1 monocyte-derived macrophages at 75 μM. In short, it runs like this:
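PMA-differentiated THP-1 macrophages, infected with GFP-expressing amastigotes, were treated 72 h at 37 °C in RPMI with 10% horse serum. After SDS lysis, LDH activity measured via lactate/NAD+/NBT formazan formation at 570 nm (Tris pH 8.9, 37 °C); CC50 by nonlinear regression.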
Regarding `NCCCCc1cn(-c2ccc(-c3nc(CCc4ccc5c(c4)CCCN5)cs3)c(OCCN3CCNC3=O)c2)nn1.O=C(O)C(F)(F)F.O=C(O)C(F)(F)F` [12q], the viability at 72 h, 75 µM is 67%.

As to `NCCCCc1cn(-c2ccc(-c3nc(CCc4ccc(-c5ccccc5)cc4)cs3)c(OCCN3CCNC3=O)c2)nn1.O=C(O)C(F)(F)F` [12c, 1-(2-(2-(4-(2-([1,1′-Biphenyl]-4-yl)ethyl)thiazol-2-yl)-5-(4-(4-ammoniumbutyl)-1H-1,2,3-triazol-1-yl)phenoxy)ethyl)imidazolidin-2-one 2,2,2-Trifluoroacetate], the viability at 72 h, 75 µM amounted to 100%.

Regarding `NCCCc1cn(-c2ccc(-c3nc(CCc4ccc(-c5ccccc5)cc4)cs3)c(OCCN3CCNC3=O)c2)nn1.O=C(O)C(F)(F)F` [12i], the viability at 72 h, 75 µM is 100%.

With `NCCCCc1cn(-c2ccc(-c3nc(-c4ccc(Oc5ccccc5)cc4)c(-c4ccccc4)s3)c(OCCN3CCNC3=O)c2)nn1.O=C(O)C(F)(F)F` [19c, 1-(2-(5-(4-(4-Ammoniobutyl)-1H-1,2,3-triazol-1-yl)-2-(4-([4-phenyloxyphenyl]-1-yl)-5-phenylthiazol-2-yl)phenoxy)ethyl)imidazolidin-2-one 2,2,2-Trifluoroacetate], the viability at 72 h, 75 µM came out at 63%.
